# Results as given in patent US7872005B2, “2-substituted heteroaryl compounds” (Synta Pharmaceuticals Corporation, priority 2004, dated 2011).
# Tests used:
# [1] = tested on: IL-12 production in human PBMC or THP-1 cells; assay: In vitro inhibition of IL-12 production in stimulated human PBMC or THP-1 cells (ELISA); type: cell-based; conditions: representative in vitro IC50 data
# Description: The biological activities of a heterocyclic compound can be evaluated by a number of cell-based assays. One of such assays can be conducted using cells from human peripheral blood mononuclear cells (PBMC) or human monocytic cell line (THP-1). The cells are stimulated with a combination of human interferon-γ (IFNγ) and lipopolysaccharide or a combination of IFNγ and Staphylococcus aureus Cowan I in the presence of a test compound. The level of inhibition of IL-12 production can be measured by determining the amount of p70 by using a sandwich ELISA assay with anti-human IL-12 antibodies. IC50 of the test compound can then be determined. Specifically, PBMC or THP-1 cells are incubated with the test compound. Cell viability was assessed using the bioreduction of MTS [3-(4,5-dimethylthiazol-2-yl)-5-(3-carboxymethoxyphenyl)-2-(4-sulfophenyl)-2H-tetrazolium] (Promega, Madison, Wis.).
# Reagents. Staphylococcus aureus Cowan I (SAC) was obtained from Calbiochem (La Jolla, Calif.), and lipopolysaccharide (LPS, Serratia marscencens) was obtained from Sigma (St. Louis, Mo.). Human and mouse recombinant IFNγ were purchased from Boehringer Mannheim (Mannheim, Germany) and Pharmingen (San Diego, Calif.), respectively.
# Human In Vitro Assay. Human PBMC were isolated by centrifugation using Ficoll-Paque (Pharmacia Biotech, Uppsala, Sweden) and prepared in RPMI medium supplemented with 10% fetal calf serum (FCS), 100 U/mL penicillin, and 100 μg/mL streptomycin. PBMC were plated in wells of a 96-well plate at a concentration of 5×10^5 cells/well, and primed by adding IFNγ (30 U/mL) for 22 h and stimulated by adding LPS (1 μg/mL), or by adding IFNγ (100 U/mL) and then stimulated by adding SAC (0.01%). A test pyrimidine compound was dissolved in DMSO, and added to wells of the 96-well plate. The final DMSO concentration was adjusted to 0.25% in all cultures, including the compound-free control. Human THP-1 cells were plated in wells, primed by adding IFNγ (100 U/mL) for 22 h and stimulated by adding SAC (0.025%) in the presence of different concentrations of the pyrimidine compound. Cell-free supernatants were taken 18 h later for measurement of cytokines. Cell viability was assessed using the bioreduction of MTS. Cell survival was estimated by determining the ratio of the absorbance in compound-treated groups versus compound-free control.
# The supernatant was assayed for the amount of IL-12p40, IL-12p70, or IL-10 by using a sandwich ELISA with anti-human antibodies, i.e., a Human IL-12 p40 ELISA kit from R&D Systems (Berkeley, Calif.), and a Human IL-12 p70 or IL-10 ELISA kit from Endogen (Cambridge, Mass.). Assays were based on the manufacturer's instructions.
# The biological activities of pyrimidine compounds were tested on human PBMC or THP-1 cells. Unexpectedly, some of the test compounds have IC50 values as low as <1 nM.
# [2] = tested on: adjuvant arthritis (AA) in female Lewis rats; assay: Treatment of adjuvant arthritis in rats; type: in vivo, rat; conditions: oral, once a day for 12 days; dose-dependent
# Experimental: A heterocyclic compound can also be evaluated by animal studies. For example, one of such studies involves the ability of a test compound to treat adjuvant arthritis (i.e., a IL-12 overproduction related disorder) in rats.
# Treatment of adjuvant arthritis in rats: Adjuvant arthritis (AA) was induced in female Lewis rats by the intracutaneous injection (base of the tail) of 0.1 mL of a 10 mg/mL bacterial suspension made from ground, heat-killed Mycobacterium tuberculosis H37Ra suspended in incomplete Freund's adjuvant. Rats were given a test compound orally once a day for 12 days, starting the day following the induction. The development of polyarthritis was monitored daily by macroscopic inspection and assignment of an arthritis index to each animal, during the critical period (days 10 to 25 post-immunization).
# The intensity of polyarthritis was scored according to the following scheme: (a) Grade each paw from 0 to 3 based on erythema, swelling, and deformity of the joints: 0 for no erythema or swelling; 0.5 if swelling is detectable in at least one joint; 1 for mild swelling and erythema; 2 for swelling and erythema of both tarsus and carpus; and 3 for ankylosis and bony deformity. Maximum score for all 4 paws was thus 12. […]
# [3] = tested on: DNBS-induced distal colitis in Wistar derived rats; assay: Dinitrobenzene sulfonic acid-induced inflammatory bowel syndrome model rats (distal colitis); type: in vivo, rat; conditions: oral, 24 and 2 hours before DNBS, then daily for 5 days; relative to net increase of vehicle+DNBS group
# Experimental: Treatment of Crohn's disease in dinitrobenzene sulfonic acid-induced inflammatory bowel syndrome model rats: Wistar derived male or female rats weighing 200±20 g and fasted for 24 hours were used. Distal colitis was induced by intra-colonic instillation of 2,4-dinitrobenzene sulfonic acid (DNBS, 25 mg in 0.5 mL ethanol 30%) after which air (2 mL) was gently injected through the cannula to ensure that the solution remained in the colon. A test compound and/or vehicle was administered orally 24 and 2 hours before DNBS instillation and then daily for 5 days. One control group was similarly treated with vehicle alone while the other is treated with vehicle plus DNBS. The animals were sacrificed 24 hours after the final dose of test compound administration and each colon was removed and weighed. Colon-to-body weight ratio was then calculated for each animal according to the formula: Colon (g)/BW×100. The “Net” increase in ratio of Vehicle-control+DNBS group relative to Vehicle-control group was used as a base for comparison with test substance treated groups and expressed as “% Deduction.” Pyrimidine compounds of this invention (e.g., Compound 12) reproducibly had about 30% deduction. A 30% or more reduction in colon-to-body weight ratio, relative to the vehicle treated control group, was considered significant.
smiles,measurement,setting,value
"Cc1cccc(/C=N/Nc2cc(N3CCOCC3)nc(CCOC(=O)Nc3cccc(C(F)(F)F)c3)n2)c1 [Compound 12, (3-Trifluoromethyl-phenyl)-carbamic acid 2-{4-[N′-(3-methyl-benzylidene)-hydrazino]-6-morpholin-4-yl-pyrimidin-2-yl}-ethyl ester]",IC50,[1],< 0.025 µM
same,arthritic score,[2],reduced the arthritic score
same,development of polyarthritis,[2],delayed the development of polyarthritis
same,% Deduction (colon-to-body weight ratio),[3],about 30%
